Results as given in patent US9695219B2, “Polypeptide having antibacterial activity and angiogenesis-inducing activity and wound-healing drug containing said polypeptide” (priority 2009, dated 2017).
Where a SMILES comes first, the peptide text is derived from it. [ ]: non-standard residue; d: D form.

Key:
[1] = tested on: paper disc model, Crl:CD (SD) rats; assay: Ability to form granulation tissue in paper disc model; assay type: in vivo, rat; settings: 1, 10 or 100 μg/disc, subcutaneous, eight days
Procedure: Then, the ability to form granulation tissue of these polypeptides in vivo was studied. Each of the peptides which were test substances and whose concentration was respectively 25, 250 and 2500 μg/mL, the bFGF formulation whose concentration was respectively 2.5, 25 and 250 μg/mL (positive controls) or saline (negative controls) was added to a paper disc (FILTER PAPER φ8 mm, […]) in an amount of 40 μl, such that, in the final state, the dosage of each peptide was 1, 10 or 100 μg/disc. The prepared paper discs were embedded subcutaneously into the back of Crl:CD (SD) rats (male, 9-week old, obtained from Charles River Laboratories Japan, Inc.). Eight days later, the paper discs were taken out, and the granulation tissues around the paper discs were collected to determine their wet weight.

[2] = tested on: Normal human dermal fibroblasts (NHDFs); assay: Collagen production test; assay type: cell-based; settings: 5-day culture
Procedure: Normal human dermal fibroblasts (NHDFs) were plated in a 48-well plate. As a medium, Medium 106 containing 1% FBS was used. After culturing in an incubator at 37° C. under 5% CO2 for about 3 hours, the peptide or FGFb (Positive Control), which had been diluted with the medium to each concentration, was added, and the culturing was further continued. The medium was replaced with a medium containing the same additive on Day 3, and the culturing was continued for another 2 days.
The amount of produced collagen was measured by using Semi-Quantitative Collagen Assay Kit.
After the 5-day culture, the medium was removed by aspiration, and the cells were washed with cold PBS(−). Cold methanol/ethanol was added thereto and the plate was left to stand for 10 minutes at room temperature to fix the cells. The cells were washed twice with cold PBS(−). Then, a staining solution (Dye Solution) was added to each well, and the plate was left to stand at room temperature for 30 minutes. The staining solution was removed, and the cells were washed 4-5 times with deionized water. An extraction solution (Dye Extraction Solution) was added to each well to extract the dye, and the absorbances of the extract at 540 nm and 605 nm were measured.
The amounts of collagen and noncollagen proteins were calculated according to the following equation. […]

cut-wound model, SD rats = assay: Evaluation of skin tissue in cut wound healing (HE staining); assay type: in vivo, rat; settings: 10 μg dropwise once a day until suture removal, skin collected Day 6
Procedure: A cut-wound model was produced using 7-week old male SD rats (Crl:CD), and the change in the skin tissue caused by administering the polypeptides of the present invention was evaluated. A cut wound of 30 to 36 mm was made on the back of the rats using a safety razor, and sutured at 3 points equally spaced (Day 0). Onto the suture site, 50 μL of each of the test substances which were respectively adjusted to the concentration of 200 μg/mL was added dropwise (the added amount was 10 μg). Each test substance was administered dropwise once a day till the day when the sutures were removed. On Day 3 after the suturing, the sutures were removed; and, on Day 6, the skin tissue in the cut wound site was collected to evaluate the skin by HE staining

[3] = tested on: Pseudomonas aeruginosa (clinical strain 6); assay: MIC measurement, broth microdilution; assay type: cell-based; settings: 37° C. for 20 hours; tested twice, first/second value where not matched
Trichophyton rubrum = assay type: cell-based; settings: 37° C. for 20 hours; tested twice, first/second value where not matched
Procedure: (§1) Further, with respect to not only the above-described strains but also various other strains, the “minimum inhibitory concentration (MIC)” was measured as follows. MIC is the lowest concentration of an agent that may inhibit the growth of a bacterium. MIC is used as a parameter for the efficacy of an antibacterial agent, for the strength of bacterial sensitivity, or the like. The bacteria can grow (proliferate) when the concentration is not higher than MIC, and cannot grow when the concentration is higher than MIC. Its measurement is carried out according to a method defined as a standard method by Japanese Society of Chemotherapy or CLINICAL AND LABORATORY […] (CLSI), but, in this Example, its measurement was carried out by a broth microdilution method in accordance with “M100-S17/M7-A7” (Performance Standards for Antimicrobial Susceptibility Testing; Seventeenth Informational Supplement, Vol. 27 No. 1) published by CLSI on January, 2007. That is, sensitivity test of agents was carried out using a microtiter plate or test tubes.
(§2) The bacteria were cultured in liquid media for 4 to 6 hours, and thereafter absorbances at A600 were measured. Bacterial suspensions were diluted with Mueller-Hinton broth (MHB) according to McFarland #0.5. Each strain was added so as to attain about 10^5 CFU/ml (final concentration). Each peptide was prepared to an optional concentration, and the solutions were serially diluted from the concentration. The polypeptide at each concentration stage was added to a microplate or test tubes, and the bacterial suspension was added thereto. Chloramphenicol, amphotericin B, ciprofloxacin, meropenem (MEPM), ciprofloxacin (CPFX), tobramycin (TOB) and oxacillin (OX) were used as positive controls. The plate was incubated at 37° C. for 20 hours, and the lowest concentration where bacterial growth was inhibited was regarded as the minimum inhibitory concentration.

Fusarium solani = assay type: cell-based; settings: 37° C. for 20 hours; tested twice, first/second value where not matched
Procedure: as §1, §2

[4] = Stability in rat serum (HPLC); assay type: in vitro ADME; settings: 37° C.
Procedure: (§3) The stability of the polypeptides in serum was evaluated. In human serum (purchased from KAC Co., Ltd.), or in rat serum obtained by collecting blood from a rat, then leaving the collected blood to stand at room temperature followed by centrifugation, each of the peptides was dissolved so as to attain a final concentration of 500 μg/mL, and the obtained solutions were left to stand at 37° C. After leaving to stand for 3 min or 10 min, these solutions were subjected to HPLC chromatogram analysis to detect peaks of the decomposition products, and calculate the ratio of the concentration of the peptides which remained in the solutions relative to the starting concentration. In addition, the half-lives of the peptides in serum were also calculated.

[5] = Stability in human serum (HPLC); assay type: in vitro ADME; settings: 37° C.
Procedure: as §3

CC[C@H](C)[C@H](NC(=O)[C@H](CC(C)C)NC(=O)[C@H](CCCCN)NC(=O)[C@@H](N)CC(C)C)C(=O)N[C@@H](Cc1ccccc1)C(=O)N[C@@H](CC(C)C)C(=O)N[C@@H](Cc1c[nH]cn1)C(=O)N[C@@H](CCCNC(=N)N)C(=O)N[C@@H](CC(C)C)C(=O)N[C@@H](CCCCN)C(=O)N[C@@H](CCCNC(=N)N)C(=O)N[C@@H](CCSC)C(=O)N[C@@H](CCCNC(=N)N)C(=O)N[C@@H](CCCCN)C(=O)N[C@@H](CCCNC(=N)N)C(=O)N[C@@H](CC(C)C)C(=O)N[C@H](CCCCN)C(=O)N[C@@H](CCCNC(=N)N)C(=O)N[C@@H](CCCCN)C(N)=O [SR-08] (H-LKLIFLHRLKRMRKRL[dK]RK-NH2; N-terminus assumed)
Granulation tissue formation (wet weight around paper disc, FIGS. 5 and 6) [1]: promoted granulation tissue formation in vivo
Collagen production of fibroblasts (FIG. 2) [2]: had an effect to induce collagen production of the fibroblasts
Granulation and collagen at cut wound site (HE staining) (cut-wound model, SD rats): increased compared to Saline
Thickening in stratum spinosum epidermidis (HE staining) (cut-wound model, SD rats): less than the saline group
MIC, Pseudomonas aeruginosa (clinical strain 6) [3]: 16/32
MIC, Trichophyton rubrum (Trichophyton rubrum): 128/64
MIC, Fusarium solani (Fusarium solani): 4/8
Ratio of peptide remaining relative to the starting concentration, rat serum, 0 min ([4]; 500 μg/mL, 0 min): 100
remaining at 0.05 h, 500 μg/mL ([4]; rat, rat serum, 3 min, read-out: Ratio of peptide remaining relative to the starting concentration, rat serum, 3 min): 87%
remaining at 10 min, 500 μg/mL ([4]; rat, rat serum, 10 min, read-out: Ratio of peptide remaining relative to the starting concentration, rat serum, 10 min): 86.9%
half-life ([4]; rat, serum, 500 μg/mL): 60 min
Ratio of peptide remaining relative to the starting concentration, human serum, 0 min ([5]; 500 μg/mL, 0 min): 100
remaining at 0.05 h, 500 μg/mL ([5]; human, human serum, 3 min, read-out: Ratio of peptide remaining relative to the starting concentration, human serum, 3 min): 95%
remaining at 10 min, 500 μg/mL ([5]; human, human serum, 10 min, read-out: Ratio of peptide remaining relative to the starting concentration, human serum, 10 min): 65.8%
half-life ([5]; human, serum, 500 μg/mL): 16 min
